These are literature values, as cited in patent publication US10561625B2, “Methods of treatment using sustained release sotalol formulations” (The Roshni Singh 2015 Trust, priority 2004, dated 2020).

The structures appear in SMILES notation. Structures can show the parent of a compound that is named as a salt.

Assay in data set [1]: not given
The source holds these as a separate data set.

`CC(C)NCC(O)c1ccc(NS(C)(=O)=O)cc1` (racemic) [Sotalol, 4′-(2-isopropylaminoethyl-1-hydroxy) methanesulphonanilide hydrochloride]: the solubility in water entry is recorded as “freely soluble in water”. Also, in data set [1] (administered twice daily), the “elimination (exclusively renal) half-life” value was 8 to 12 h. Also, the “peak plasma concentration (time)” value in data set [1] (after a dose of the current formulation) is 2 to 3 h. Besides, the mean elimination half-life result in data set [1] (current formulation) is “about 12 hours”. Besides, the bioavailability in data set [1] (in vivo) is 100%. For the same compound, the “absorbed after oral ingestion” value in data set [1] (oral, no first-pass hepatic metabolism) is given as 100%.

For `COCCc1ccc(OCC(O)CNC(C)C)cc1` (centres unmarked) [Metoprolol], the solubility in water entry is “freely soluble in water”. Besides, in data set [1] (in vivo), the plasma half-life is 2.5 to 9.5 h.

As a reminder, the bioavailability is the share of a dose that reaches the circulation, judged against a reference dose that is usually intravenous.
